Experiment [1] deals with T1, MRSA Pyk (Staphylococcus aureus, UniProt Q6GG09).
T1 construct: made in house; host or cells: E. coli BL-21 (DE3)
The experiment is described as follows: MRSA pyruvate kinase (PK) activity, continuous LDH-coupled assay. The experiment is classed as biochemical, methicillin resistant S. aureus (MRSA252). In a few lines:
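His-tagged MRSA PK (strain Sanger 252) and human PK isoforms expressed in E. coli BL-21 (DE3) and Ni-NTA purified, used at 15 nM in an LDH-coupled assay following NADH oxidation at 340 nm, 30° C, up to 5 min, ≤1% DMSO. IC50 from four-parameter variable-slope fit; Ki with PEP 2-20 mM, ADP fixed 2 mM, inhibitor 0-400 nM.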

In experiment [2] the test system is S. aureus (ATCC29213). Nature of the experiment: In vitro susceptibility, broth microdilution (MIC). Conditions: Staphylococcus aureus. The class given is cell-based. In a few lines: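 CLSI 2-fold serial broth microdilution; K. pneumoniae C238 grown in L-broth, S. aureus ATCC 29213 in Mueller Hinton broth, plates incubated 18–24 h at 37 °C. MIC taken as lowest concentration giving complete growth inhibition by OD600 versus compound-free wells, background-subtracted.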
For orientation: In broth dilution the organism is exposed to a series of concentrations in liquid medium.

Where [3] appears, read: S. aureus ATCC29213, 18-24 h, 37 C, read-out: Antimicrobial activity (MIC) S. aureus ATCC29213.

The term IC50 denotes the midpoint of a concentration-inhibition curve. Higher therefore signals weaker potency. A word on the MIC: it is the lowest concentration that inhibits growth of the organism.

In brackets after ≈: the same amount, converted by molar mass. Where two headings read alike, the source gives them in different places.

T1 sequence (Q6GG09 whole entry): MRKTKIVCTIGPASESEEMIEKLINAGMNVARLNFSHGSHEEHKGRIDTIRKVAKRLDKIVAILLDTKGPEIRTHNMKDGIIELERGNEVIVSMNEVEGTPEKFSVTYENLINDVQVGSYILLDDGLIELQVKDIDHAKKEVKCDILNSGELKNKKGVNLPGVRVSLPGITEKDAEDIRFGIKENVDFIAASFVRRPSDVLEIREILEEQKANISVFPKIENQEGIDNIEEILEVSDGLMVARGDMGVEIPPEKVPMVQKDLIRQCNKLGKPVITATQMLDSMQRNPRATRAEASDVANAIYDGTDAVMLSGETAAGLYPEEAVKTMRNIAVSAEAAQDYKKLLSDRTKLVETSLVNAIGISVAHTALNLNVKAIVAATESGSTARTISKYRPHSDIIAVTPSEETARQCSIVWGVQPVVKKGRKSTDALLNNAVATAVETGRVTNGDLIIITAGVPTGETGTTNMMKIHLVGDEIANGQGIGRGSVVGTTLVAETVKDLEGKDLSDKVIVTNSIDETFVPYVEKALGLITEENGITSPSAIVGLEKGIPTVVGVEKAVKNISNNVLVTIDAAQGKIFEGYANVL

The molecule `O=C(NCCN1CCN(C(=O)CCC(=O)N2CCN(CCNC(=O)c3c(/C=C/c4ccc(Cl)cc4)[nH]c4cc(Br)ccc34)CC2)CC1)c1c(/C=C/c2ccc(Cl)cc2)[nH]c2cc(Br)ccc12` [Compound 55, (E)-N,N′-((4,4′-succinylbis(piperazine-4,1-diyl))bis(ethane-2,1-diyl))bis(6-bromo-2-((E)-4-chlorostyryl)-1H-indole-3-carboxamide)] came in with an IC50 in experiment [1] greater than 1000 nM. Further, the MIC in experiment [2] (setting [3]) is greater than 64 µg/mL.
In turn, `O=C(NCCN1CCN(C(=O)CO)CC1)c1c(/C=C/c2ccc(Cl)cc2)[nH]c2cc(Br)ccc12` [Compound 58, (E)-6-Bromo-2-(4-chlorostyryl)-N-(2-(4-(2-hydroxyacetyl)piperazin-1-yl)ethyl)-1H-indole-3-carboxamide] gave an IC50 in experiment [1] of less than 100 nM. Also, the MIC in experiment [2] (setting [3]) is greater than 64 µg/mL.
On the same counts, the results for `O=C(O)CCC(=O)N1CCN(CCNC(=O)c2c(/C=C/c3ccc(Cl)cc3)[nH]c3cc(Br)ccc23)CC1` [Compound 59, (E)-4-(4-(2-(6-Bromo-2-(4-chlorostyryl)-1H-indole-3-carboxamido)ethyl)piperazin-1-yl)-4-oxobutanoic Acid] are 100 to 1000 nM and greater than 64 µg/mL.
On the same counts, the results for `O=C(OCCN1CCOCC1)c1c(/C=C/c2ccc(Cl)cc2)[nH]c2cc(Br)ccc12` [Compound 62, 2-Morpholinoethyl (E)-6-bromo-2-(4-chlorostyryl)-1H-indole-3-carboxylate] are 100 to 1000 nM and greater than 64 µg/mL.
On to `O=C(NCc1ccccc1)c1cc(Br)cc2[nH]c(/C=C/c3ccc(Cl)cc3)cc12` [Compound 63, (E)-N-Benzyl-6-bromo-2-(4-chlorostyryl)-1H-indole-4-carboxamide], for which, in experiment [1], the IC50 is 100 to 1000 nM. The MIC in experiment [2] (setting [3]) is greater than 64 µg/mL.
On the same counts, the results for `CN(C)C(=O)c1cc(Br)cc2[nH]c(/C=C/c3ccc(Cl)cc3)cc12` [Compound 64, (E)-6-Bromo-2-(4-chlorostyryl)-N,N-dimethyl-1H-indole-4-carboxamide] are less than 100 nM and greater than 64 µg/mL.
In the same order, the values of `FC(F)(F)c1c(/C=C/c2ccc(Cl)cc2)[nH]c2cc(Br)ccc12` [Compound 65, (E)-6-Bromo-2-(4-chlorostyryl)-3-(trifluoromethyl)-1H-indole] are less than 100 nM and 1 µg/mL (≈ 2.5 µM).
On the same counts, the results for `FC(F)(F)c1c(CCc2ccc(Cl)cc2)[nH]c2cc(Br)ccc12` [Compound 66, 6-Bromo-2-(4-chlorophenethyl)-3-(trifluoromethyl)-1H-indole] are 100 to 1000 nM and 2 µg/mL (≈ 4.97 µM).
For `N#Cc1c(/C=C/c2ccc(Cl)cc2)[nH]c2cc(Br)ccc12` [Compound 67, (E)-6-Bromo-2-(4-chlorostyryl)-1H-indole-3-carbonitrile], the IC50 in experiment [1] is greater than 1000 nM. For the same molecule, the MIC in experiment [2] (setting [3]) was greater than 64 µg/mL.
On the same counts, the results for `NC(=NO)c1c(/C=C/c2ccc(Cl)cc2)[nH]c2cc(Br)ccc12` [Compound 68, 6-Bromo-2-((E)-4-chlorostyryl)-N′-hydroxy-1H-indole-3-carboximidamide] are less than 100 nM and 8 µg/mL (≈ 20.5 µM).
In the same order, the values of `Clc1ccc(/C=C/c2[nH]c3cc(Br)ccc3c2-c2nn[nH]n2)cc1` [Compound 69, (E)-6-Bromo-2-(4-chlorostyryl)-3-(2H-tetrazol-5-yl)-1H-indole] are less than 100 nM and 16 µg/mL (≈ 39.9 µM).
On the same counts, the results for `NS(=O)(=O)c1c(CCc2ccc(Cl)cc2)[nH]c2cc(Br)ccc12` [Compound 70, 6-Bromo-2-(4-chlorophenethyl)-1H-indole-3-sulfonamide] are greater than 1000 nM and greater than 64 µg/mL.
In turn, `O=C(c1c(-c2cc3ccccc3s2)[nH]c2cc(Br)ccc12)N1CCOCC1` [Compound 75] came in with an IC50 in experiment [1] greater than 1000 nM. Moreover, the MIC in experiment [2] (setting [3]) is greater than 64 µg/mL.
On the same counts, the results for `O=C(c1c(-c2cc3ccccc3[nH]2)[nH]c2cc(Br)ccc12)N1CCOCC1` [Compound 76, (6-Bromo-1H,1′H-[2,2′-biindol]-3-yl)(morpholino)methanone] are greater than 1000 nM and greater than 64 µg/mL.
With `CC(C)(C)OC(=O)N1CCN(CCNC(=O)c2c(C(=O)Nc3ccc(Cl)cc3)[nH]c3cc(Br)ccc23)CC1` [Compound 78, tert-Butyl 4-(2-(6-bromo-2-((4-chlorophenyl)carbamoyl)-1H-indole-3-carboxamido)ethyl)piperazine-1-carboxylate], the IC50 in experiment [1] was less than 100 nM. Also, in experiment [2] (setting [3]), the MIC is greater than 64 µg/mL.
On the same counts, the results for `CN1CCN(CCNC(=O)c2c(C(=O)Nc3ccc(Cl)cc3)[nH]c3cc(Br)ccc23)CC1` [Compound 79, 6-Bromo-N2-(4-chlorophenyl)-N3-(2-(4-methylpiperazin-1-yl)ethyl)-1 H-indole-2,3-dicarboxamide] are less than 100 nM and greater than 64 µg/mL.
In the same order, the values of `O=C(Nc1ccc(Cl)cc1)c1[nH]c2cc(Br)ccc2c1C(=O)NCCN1CCNCC1` [Compound 80, 6-Bromo-N2-(4-chlorophenyl)-N3-(2-(piperazin-1-yl)ethyl)-1H-indole-2,3-dicarboxamide] are less than 100 nM and greater than 64 µg/mL.
On the same counts, the results for `CN(C)CCNC(=O)c1c(C(=O)Nc2ccc(Cl)cc2)[nH]c2cc(Br)ccc12` [Compound 81, 6-Bromo-N2-(4-chlorophenyl)-N3-(2-(dimethylamino)ethyl)-1H-indole-2,3-dicarboxamide] are less than 100 nM and greater than 64 µg/mL.
The molecule `CN(C)CCOC(=O)c1c(C(=O)Nc2ccc(Cl)cc2)[nH]c2cc(Br)ccc12` [Compound 82, 2-(Dimethylamino)ethyl 6-bromo-2-((4-chlorophenyl)carbamoyl)-1 H-indole-3-carboxylate] showed an IC50 in experiment [1] of less than 100 nM. In experiment [2] (setting [3]), the MIC is greater than 64 µg/mL.
`O=C(O)C(=O)c1c(/C=C/c2ccc(Cl)cc2)[nH]c2cc(Br)ccc12` [Compound 85, (E)-2-(6-bromo-2-(4-chlorostyryl)-1H-indol-3-yl)-2-oxoacetic Acid] showed an IC50 in experiment [1] of 100 to 1000 nM. Further, the MIC in experiment [2] (setting [3]) was greater than 64 µg/mL.
In turn, `NC(=O)[C@@H]1CCCN1CCCCNC(=O)c1c(-c2cc3cc(Cl)ccc3[nH]2)[nH]c2cc(Br)ccc12` [Compound 116, (S)-6-Bromo-N-(4-(2-carbamoylpyrrolidin-1-yl)butyl)-5′-chloro-1H,1′H-[2,2′-biindole]-3-carboxamide] came in with an IC50 in experiment [1] of less than 100 nM. The MIC in experiment [2] (setting [3]) is greater than 64 µg/mL.
In the same order, the values of `CC(C)(C)OC(=O)COc1cc2[nH]c(-c3cc4ccc(Br)cc4[nH]3)cc2cc1Cl` [Compound 186, tert-Butyl 2-((6′-bromo-5-chloro-1H,1′H-[2,2′-biindol]-6-yl)oxy)acetate] are less than 100 nM and greater than 64 µg/mL.
On the same counts, the results for `O=C(O)COc1cc2[nH]c(-c3cc4ccc(Br)cc4[nH]3)cc2cc1Cl` [Compound 187, 2-((6′-Bromo-5-chloro-1H,1′H-[2,2′-biindol]-6-yl)oxy)acetic Acid] are less than 100 nM and 64 µg/mL (≈ 153 µM).
`CS(=O)(=O)OCCOc1cc2[nH]c(-c3cc4ccc(Br)cc4[nH]3)cc2cc1Cl` [Compound 198, 2-((6′-Bromo-5-chloro-1H,1′H-[2,2′-biindol]-6-yl)oxy)ethyl Methanesulfonate] came in with an IC50 in experiment [1] of less than 100 nM. Moreover, the MIC in experiment [2] (ATCC29213, read-out: Antimicrobial activity (MIC) S. aureus ATCC29213) was greater than 64 µg/mL.

The record behind these values is patent US20180312493A1, “Antibiotic Compounds, Pharmaceutical Formulations Thereof And Methods And Uses Therefor” (Simon Fraser University, priority 2015, published 2018).
